{"source": "patent US6465677B1", "about": "“Method for the preparation of N-neohexyl-α-aspartyl-L-phenylalanine methyl ester from imidazolidin-4-one intermediates” (The NutraSweet Company, priority 1998, dated 2002)", "origin": "cited, not measured here", "settings": "on a weight basis"}
{"smiles": "COC(=O)[C@H](Cc1ccccc1)NC(=O)[C@H](CC(=O)O)NCCC(C)(C)C", "note": "[neotame, N-[N-(3,3-dimethylbutyl)-L-α-aspartyl]-L-phenylalanine 1-methyl ester]", "values": [{"measurement": "sweetness relative to sucrose", "result": "approximately 8,000 times as sweet as sucrose"}]}
